Data from the supplement of paper PMC10307832.

Assays:
Assay in all cases: relative viability (nuclei count vs DMSO), 5 days (fraction); higher = more cells survive
FH535 + Pictilisib = compound: CC1=C(C=CC(=C1)[N+](=O)[O-])NS(=O)(=O)C2=C(C=CC(=C2)Cl)Cl [FH535] + CS(=O)(=O)N1CCN(Cc2cc3nc(-c4cccc5[nH]ncc45)nc(N4CCOCC4)c3s2)CC1 [Pictilisib] (partner 1 µM)
Summary of the method: (§1)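 Lung cancer cell lines were seeded in 1536-well plates and dosed by pin tool the next day, with either a single drug or a fixed anchor-drug dose combined with five library-drug doses (not always all listed) spaced in √10 steps. Five days later, one step fixed the cells and stained their nuclei (final 0.05% Triton X-100, 1% formaldehyde, 1 ug/ml Hoechst), and nuclei were counted on 4× images. Relative viability is the nuclei count in treated wells divided by the count in vehicle wells, and each value is the median of duplicate plates.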

FH535 + Phenformin = compound: CC1=C(C=CC(=C1)[N+](=O)[O-])NS(=O)(=O)C2=C(C=CC(=C2)Cl)Cl [FH535] + N=C(N)NC(=N)NCCc1ccccc1 [Phenformin] (partner 250 µM)
Summary of the method: as §1

FH535 + Luminespib = compound: CC1=C(C=CC(=C1)[N+](=O)[O-])NS(=O)(=O)C2=C(C=CC(=C2)Cl)Cl [FH535] + CCNC(=O)c1noc(-c2cc(C(C)C)c(O)cc2O)c1-c1ccc(CN2CCOCC2)cc1 [Luminespib] (partner 0.01 µM)
Summary of the method: as §1

FH535 + Linsitinib = compound: CC1=C(C=CC(=C1)[N+](=O)[O-])NS(=O)(=O)C2=C(C=CC(=C2)Cl)Cl [FH535] + C[C@]1(O)C[C@@H](c2nc(-c3ccc4ccc(-c5ccccc5)nc4c3)c3c(N)nccn32)C1 [Linsitinib] (partner 1 µM)
Summary of the method: as §1

FH535 + Crizotinib = compound: CC1=C(C=CC(=C1)[N+](=O)[O-])NS(=O)(=O)C2=C(C=CC(=C2)Cl)Cl [FH535] + C[C@@H](Oc1cc(-c2cnn(C3CCNCC3)c2)cnc1N)c1c(Cl)ccc(F)c1Cl [Crizotinib] (partner 1 µM)
Summary of the method: as §1

Cell Line | relative viability (FH535 + Pictilisib; first compound 0.04 µM) | relative viability (FH535 + Pictilisib; first compound 0.1265 µM) | relative viability (FH535 + Pictilisib; first compound 0.4 µM) | relative viability (FH535 + Pictilisib; first compound 1.265 µM) | relative viability (FH535 + Phenformin; first compound 0.04 µM) | relative viability (FH535 + Phenformin; first compound 0.1265 µM) | relative viability (FH535 + Phenformin; first compound 0.4 µM) | relative viability (FH535 + Phenformin; first compound 1.265 µM) | relative viability (FH535 + Luminespib; first compound 0.04 µM) | relative viability (FH535 + Luminespib; first compound 0.1265 µM) | relative viability (FH535 + Luminespib; first compound 0.4 µM) | relative viability (FH535 + Luminespib; first compound 1.265 µM) | relative viability (FH535 + Linsitinib; first compound 0.04 µM) | relative viability (FH535 + Linsitinib; first compound 0.1265 µM) | relative viability (FH535 + Linsitinib; first compound 0.4 µM) | relative viability (FH535 + Linsitinib; first compound 1.265 µM) | relative viability (FH535 + Crizotinib; first compound 0.04 µM) | relative viability (FH535 + Crizotinib; first compound 0.1265 µM) | relative viability (FH535 + Crizotinib; first compound 0.4 µM) | relative viability (FH535 + Crizotinib; first compound 1.265 µM)
NCI-H596 | 0.347 | 0.385 | 0.39 | 0.344 | 0.794 | 0.623 | 0.614 | 0.69 | 1.07 | 1.11 | 0.85 | 0.992 | 1.1 | 1.13 | 1.1 | 1.01 | 1.02 | 1.02 | 1.08 | 0.929
NCI-H1755 | 0.341 | 0.449 | 0.421 | 0.415 | 0.539 | 0.627 | 0.558 | 0.494 | 0.394 | 0.445 | 0.38 | 0.418 | 0.968 | 0.996 | 0.912 | 0.919 | 0.931 | 0.859 | 0.801 | 0.776
NCI-H2087 | 0.885 | 0.885 | 0.731 | 0.52 | 0.425 | 0.398 | 0.286 | 0.155 | 0.178 | 0.141 | 0.147 | 0.191 | 0.98 | 0.994 | 0.87 | 0.512 | 0.96 | 0.774 | 0.765 | 0.415
NCI-H2023 | 0.209 | 0.226 | 0.252 | 0.231 | 0.384 | 0.375 | 0.314 | 0.191 | 0.838 | 0.704 | 0.681 | 0.64 | 0.677 | 0.631 | 0.745 | 0.629 | 0.761 | 0.639 | 0.676 | 0.723
CAL-12T | 0.392 | 0.362 | 0.29 | 0.334 | 0.515 | 0.514 | 0.403 | 0.316 | 0.331 | 0.496 | 0.727 | 0.536 | 0.871 | 0.796 | 0.712 | 0.598 | 0.817 | 0.691 | 0.719 | 0.556
NCI-H2085 | 0.407 | 0.568 | 0.481 | 0.486 | 0.687 | 0.65 | 0.585 | 0.451 | 0.333 | 0.481 | 0.41 | 0.268 | 0.858 | 0.924 | 0.892 | 0.724 | 1.03 | 0.969 | 0.705 | 0.695
NCI-H661 | 0.473 | 0.381 | 0.392 | 0.536 | 0.302 | 0.294 | 0.276 | 0.234 | 0.893 | 0.928 | 0.841 | 0.56 | 0.521 | 0.537 | 0.539 | 0.493 | 1.08 | 0.955 | 0.931 | 0.797
LCLC-97TM1 |  | 0.124 | 0.176 | 0.206 | 0.409 | 0.37 | 0.334 | 0.313 | 0.736 | 0.763 | 0.742 | 0.436 |  | 0.202 | 0.204 | 0.185 |  | 0.583 | 0.322 | 0.296
NCI-H2126 | 0.472 | 0.497 | 0.472 | 0.425 | 0.525 | 0.53 | 0.457 | 0.348 | 0.841 | 0.919 | 0.868 | 0.514 | 0.746 | 0.719 | 0.705 | 0.619 | 0.976 | 0.984 | 0.941 | 0.683
201T | 0.662 | 0.726 | 0.632 | 0.627 | 0.402 | 0.45 | 0.397 | 0.321 | 1.04 | 1.03 | 1.03 | 0.735 | 1.05 | 1.03 | 0.95 | 0.964 | 0.99 | 1.09 | 0.975 | 0.875
NCI-H1915 | 0.732 | 0.903 | 0.835 | 0.77 | 0.339 | 0.385 | 0.309 | 0.292 | 0.81 | 0.797 | 0.775 | 0.644 | 1.08 | 1.12 | 1.08 | 0.896 | 0.907 | 0.871 | 0.867 | 0.688
BEN | 0.548 | 0.617 | 0.459 | 0.41 | 0.231 | 0.25 | 0.263 | 0.221 | 0.211 | 0.466 | 0.285 | 0.119 | 0.811 | 0.976 | 0.918 | 0.508 | 0.813 | 0.859 | 0.792 | 0.535
NCI-H2405 | 0.329 | 0.447 | 0.425 | 0.422 | 0.395 | 0.378 | 0.344 | 0.331 | 0.76 | 0.752 | 0.602 | 0.605 | 0.848 | 1.01 | 0.953 | 0.76 | 0.816 | 0.854 | 0.805 | 0.725
H3255 | 0.352 | 0.466 | 0.445 | 0.413 | 0.31 | 0.423 | 0.374 | 0.32 | 0.849 | 0.892 | 0.911 | 0.44 | 0.87 | 1.04 | 0.884 | 0.727 | 0.896 | 0.806 | 0.853 | 0.705
NCI-H460 | 0.344 | 0.338 | 0.335 | 0.329 | 0.517 | 0.535 | 0.399 | 0.244 | 0.0362 | 0.0377 | 0.0408 | 0.0254 | 0.902 | 0.891 | 0.791 | 0.678 | 1.04 | 0.991 | 1.08 | 0.652
